In patent US12016852B2, “Pyrrolidine glycosidase inhibitors” (Asceneuron SA, priority 2018, dated 2024) one finds IC50 data, which are given here for 25 molecules.

The structures appear in SMILES notation.

The target of this experiment is T1, Human O-GlcNAcase (His-Tagged hOGA) (Homo sapiens, UniProt O60502).
T1 sequence (O60502 1-916): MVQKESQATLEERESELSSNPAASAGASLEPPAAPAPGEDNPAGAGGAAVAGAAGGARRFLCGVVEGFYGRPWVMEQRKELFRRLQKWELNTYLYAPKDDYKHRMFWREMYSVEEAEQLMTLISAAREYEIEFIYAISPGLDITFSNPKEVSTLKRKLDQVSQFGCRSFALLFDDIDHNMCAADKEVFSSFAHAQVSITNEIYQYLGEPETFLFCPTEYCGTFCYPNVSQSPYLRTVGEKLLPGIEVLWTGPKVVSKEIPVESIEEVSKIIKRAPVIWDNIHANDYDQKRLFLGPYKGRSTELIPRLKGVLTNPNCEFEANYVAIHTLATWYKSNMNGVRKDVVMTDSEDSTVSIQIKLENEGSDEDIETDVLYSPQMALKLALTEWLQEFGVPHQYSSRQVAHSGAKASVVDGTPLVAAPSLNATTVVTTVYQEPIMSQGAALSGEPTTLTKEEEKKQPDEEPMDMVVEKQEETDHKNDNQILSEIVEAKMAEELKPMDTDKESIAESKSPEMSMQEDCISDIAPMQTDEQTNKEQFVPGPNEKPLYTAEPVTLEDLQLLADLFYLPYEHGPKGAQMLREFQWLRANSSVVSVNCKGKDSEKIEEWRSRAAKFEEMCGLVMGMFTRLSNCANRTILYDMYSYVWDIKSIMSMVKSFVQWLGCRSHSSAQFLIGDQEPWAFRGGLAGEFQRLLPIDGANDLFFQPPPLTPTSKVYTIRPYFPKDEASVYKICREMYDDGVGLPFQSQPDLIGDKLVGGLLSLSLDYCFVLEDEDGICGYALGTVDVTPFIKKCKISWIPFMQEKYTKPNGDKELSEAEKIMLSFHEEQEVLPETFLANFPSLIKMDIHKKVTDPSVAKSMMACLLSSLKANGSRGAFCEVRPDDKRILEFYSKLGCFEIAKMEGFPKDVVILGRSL
Put plainly: Human O-GlcNAcase enzyme inhibition assay. Type of experiment: biochemical. The note with it: 20 nM His-Tagged hOGA, 10 μM FL-GlcNAc, McIlvaine's Buffer pH 6.5, 60 min at room temperature, fluorescence; read-out: OGA IC50. As to the method: Example B01: Human O-GlcNAcase Enzyme Inhibition Assay
5 μl of the appropriate concentration of a solution of inhibitor in Mcllvaine's Buffer (pH 6.5) in 2% DMSO (for a dose response curve calculation) is added into each well of a 384-well plate (Greiner, 781900). Then, 20 nM of His-Tagged hOGA and 10 μM of FL-GlcNAc (Fluorescein mono-beta-D-(2-deoxy-2-N-acetyl) glucopyranoside; Marker Gene Technologies Inc, M1485) were added to the 384-well plate for a final volume of 20 μl. After incubation for 60 min at room temperature, the reaction was terminated by the addition of 10 μL of stop buffer (200 mM glycine, pH 10.75). The level of fluorescence (λexc 485 nm; (λemm 520 nm) was read on a PHERAstar machine. The amount of fluorescence measured was plotted against the concentration of inhibitor to produce a sigmoidal dose response curve to calculate an IC50. All individual data was corrected by subtraction of the background (Thiamet 3 uM=100% inhibition) whilst 0.5% DMSO was considered as the control value (no inhibition).
In the case of `Clc1cc(-c2ccccn2)ccc1CN1CCCC1c1ccc2c(c1)OCCO2` (racemic) [Example 43, (3-chloro-4-((2-(2,3-dihydrobenzo[b] [1,4]dioxin-6-yl)pyrrolidin-1-yl)methyl)phenyl) pyridine], the 50% inhibitory concentration (IC50) was 1000 to 10000 nM.

Take `CS(=O)(=O)c1cccc(-c2ccc(CN3CCCC3c3ccc4c(c3)OCCO4)cc2)c1` (racemic) [Example 44, 2-(2,3-dihydrobenzo[b] [1,4]dioxin-6-yl)-1-((3′-(methylsulfonyl)-[1,1′-biphenyl]-4-yl)methyl)pyrrolidine]: the half-inhibitory concentration (IC50) lay in the range of 200 to 1000 nM.

As to `Cc1cc(-c2cnn(C)c2)ccc1CN1CCCC1c1ccc2c(c1)OCCO2` (racemic) [Example 45, 4-(4-((2-(2,3-dihydrobenzo[b] [1,4]dioxin-6-yl)pyrrolidin-1-yl)methyl)-3-methylphenyl)-1-methyl-1H-pyrazole], the IC50 fell in the range of 50 to 200 nM.

Regarding `c1cc(-c2ccc(CN3CCCC3c3ccc4c(c3)OCCO4)cc2)ccn1` (racemic) [Example 46, 4-(4-((2-(2,3-dihydrobenzo[b] [1,4]dioxin-6-yl)pyrrolidin-1-yl)methyl)phenyl)pyridine], the half-maximal inhibitory concentration (IC50) was in the range of 200 to 1000 nM.

Turning to `Cc1cc(-c2ccncc2)ccc1CN1CCCC1c1ccc2c(c1)OCCO2` (racemic) [Example 49, 4-(4-((2-(2,3-dihydrobenzo[b] [1,4]dioxin-6-yl)pyrrolidin-1-yl)methyl)-3-methylphenyl)pyridine], the half-inhibitory concentration (IC50) is 200 to 1000 nM.

For `CC(=O)Nc1ncc(CN2CCCC2c2ccc3c(c2)OCCO3)s1` (racemic) [Example 50, N-(5-((2-(2,3-dihydrobenzo[b] [1,4]dioxin-6-yl)pyrrolidin-1-yl)methyl)thiazol-2-yl)acetamide], the IC50 lay within 200 to 1000 nM.

On to `Brc1cnn(-c2ccc(CN3CCCC3c3ccc4c(c3)OCCO4)cc2)c1` (racemic) [Example 51, 4-bromo-1-(4-((2-(2,3-dihydrobenzo[b] [1,4]dioxin-6-yl)pyrrolidin-1-yl)methyl)phenyl)-1H-pyrazole], for which the half-maximal inhibitory concentration (IC50) lay within 50 to 200 nM.

Regarding `N#Cc1cnn(-c2ccc(CN3CCCC3c3ccc4c(c3)OCCO4)cc2)c1` (racemic) [Example 52, 1-(4-((2-(2,3-dihydrobenzo[b] [1,4]dioxin-6-yl)pyrrolidin-1-yl)methyl)phenyl)-1H-pyrazole-4-carbonitrile], the 50% inhibitory concentration (IC50) fell in the range of 50 to 200 nM.

On to `Cc1noc(C)c1-c1ccc(CN2CCCC2c2ccc3c(c2)OCCO3)cc1` (racemic) [Example 54, 4-(4-((2-(2,3-dihydrobenzo[b] [1,4]dioxin-6-yl)pyrrolidin-1-yl)methyl)phenyl)-3,5-dimethylisoxazole], for which the half-inhibitory concentration (IC50) fell in the range of 1000 to 10000 nM.

`Cc1nn(C)c(C)c1-c1ccc(CN2CCCC2c2ccc3c(c2)OCCO3)cc1` (racemic) [Example 55, 4-(4-((2-(2,3-dihydrobenzo[b] [1,4]dioxin-6-yl)pyrrolidin-1-yl)methyl)phenyl)-1,3,5-trimethyl-1H-pyrazole]: the half-inhibitory concentration (IC50) lay within 1000 to 10000 nM.

As to `Cc1cc(-c2cccnc2C)ccc1CN1CCCC1c1ccc2c(c1)OCCO2` (racemic) [Example 56, 3-(4-((2-(2,3-dihydrobenzo[b] [1,4]dioxin-6-yl)pyrrolidin-1-yl)methyl)-3-methylphenyl)-2-methylpyridine], the IC50 is 200 to 1000 nM.

For `Cc1cc(-c2ccncc2C)ccc1CN1CCCC1c1ccc2c(c1)OCCO2` (racemic) [Example 57, 4-(4-((2-(2,3-dihydrobenzo[b] [1,4]dioxin-6-yl)pyrrolidin-1-yl)methyl)-3-methylphenyl)-3-methylpyridine], the IC50 was 200 to 1000 nM.

With `c1csc(-c2ccc(CN3CCCC3c3ccc4c(c3)OCCO4)cc2)n1` (racemic) [Example 58, 2-(4-((2-(2,3-dihydrobenzo[b] [1,4]dioxin-6-yl)pyrrolidin-1-yl)methyl)phenyl)thiazole], the IC50 is 50 to 200 nM.

`Cc1cnc(-c2ccc(CN3CCCC3c3ccc4c(c3)OCCO4)cc2)s1` (racemic) [Example 59, 2-(4-((2-(2,3-dihydrobenzo[b] [1,4]dioxin-6-yl)pyrrolidin-1-yl)methyl)phenyl)-5-methylthiazole]: the IC50 was 200 to 1000 nM.

As for `N#Cc1cnc(-c2ccc(CN3CCCC3c3ccc4c(c3)OCCO4)cc2)s1` (racemic) [Example 60, 2-(4-((2-(2,3-dihydrobenzo[b] [1,4]dioxin-6-yl)pyrrolidin-1-yl)methyl)phenyl)thiazole-5-carbonitrile], the IC50 is 50 to 200 nM.

`O=C1COCCN1c1ccc(CN2CCCC2c2ccc3c(c2)OCCO3)cc1` (racemic) [Example 61, 4-(4-((2-(2,3-dihydrobenzo[b] [1,4]dioxin-6-yl)pyrrolidin-1-yl)methyl)phenyl) morpholin-3-one]: the IC50 was in the range of 200 to 1000 nM.

Take `O=C1CCCCN1c1ccc(CN2CCCC2c2ccc3c(c2)OCCO3)cc1` (racemic) [Example 62, 1-(4-((2-(2,3-dihydrobenzo[b] [1,4]dioxin-6-yl)pyrrolidin-1-yl)methyl)phenyl)piperidin-2-one]: the IC50 was 200 to 1000 nM.

For `CS(=O)(=O)c1cncc(-c2ccc(CN3CCCC3c3ccc4c(c3)OCCO4)cc2)c1` (racemic) [Example 63, 3-(4-((2-(2,3-dihydrobenzo[b] [1,4]dioxin-6-yl)pyrrolidin-1-yl)methyl)phenyl)-5-(methylsulfonyl)pyridine], the half-maximal inhibitory concentration (IC50) was in the range of 50 to 200 nM.

In the case of `c1cnc(-c2ccc(CN3CCCC3c3ccc4c(c3)OCCO4)cc2)cn1` (racemic) [Example 64, 2-(4-((2-(2,3-dihydrobenzo[b] [1,4]dioxin-6-yl)pyrrolidin-1-yl)methyl)phenyl)pyrazine], the IC50 was 50 to 200 nM.

Take `CS(=O)(=O)CCOc1ccc(CN2CCCC2c2ccc3c(c2)OCCO3)cc1` (racemic) [Example 65, 2-(2,3-dihydrobenzo[b] [1,4]dioxin-6-yl)-1-(4-(2-(methylsulfonyl)ethoxy)benzyl)pyrrolidine]: the 50% inhibitory concentration (IC50) lay within 1000 to 10000 nM.

Turning to `O=S1(=O)CCN(c2ccc(CN3CCCC3c3ccc4c(c3)OCCO4)cc2)CC1` (racemic) [Example 66, 4-(4-((2-(2,3-dihydrobenzo[b] [1,4]dioxin-6-yl)pyrrolidin-1-yl)methyl)phenyl)thiomorpholine 1,1-dioxide], the IC50 lay in the range of 200 to 1000 nM.

Take `O=C1CSCCN1c1ccc(CN2CCCC2c2ccc3c(c2)OCCO3)cc1` (racemic) [Example 67, 4-(4-((2-(2,3-dihydrobenzo[b] [1,4]dioxin-6-yl)pyrrolidin-1-yl)methyl)phenyl)thiomorpholin-3-one]: the IC50 lay within 200 to 1000 nM.

Regarding `Cc1csc(-c2ccc(CN3CCCC3c3ccc4c(c3)OCCO4)cc2)n1` (racemic) [Example 68, 2-(4-((2-(2,3-dihydrobenzo[b] [1,4]dioxin-6-yl)pyrrolidin-1-yl)methyl)phenyl)-4-methylthiazole], the IC50 lay within 200 to 1000 nM.

On to `c1cnc(-c2ccc(CN3CCCC3c3ccc4c(c3)OCCO4)cc2)nc1` (racemic) [Example 69, 2-(4-((2-(2,3-dihydrobenzo[b] [1,4]dioxin-6-yl)pyrrolidin-1-yl)methyl)phenyl) pyrimidine], for which the IC50 fell in the range of 50 to 200 nM.

Consider `Cc1cnccc1-c1ccc(CN2CCCC2c2ccc3c(c2)OCCO3)cc1C` (racemic) [Example 70, 4-(4-((2-(2,3-dihydrobenzo[b] [1,4]dioxin-6-yl)pyrrolidin-1-yl)methyl)-2-methylphenyl)-3-methylpyridine], for which the IC50 was in the range of 1000 to 10000 nM.
